Results reported in ChEMBL document CHEMBL4359836, “Synthesis and Biological Assessment of Pyrrolobenzoxazine Scaffold as a Potent Antioxidant” (J Med Chem, 2019).
Calls of active or inactive are those of the source. The rule behind the calls is not given here.

Tests used:
Mitochondria [1] = assay: Antioxidant activity in goat cardiac mitochondria assessed as inhibition of CuCl2/ascorbic acid-induced protein carbonyl content at 66 uM after 1 hr by DNPH assay relative to control; type: functional, subcellular; settings: Capra hircus, Heart, Mitochrondria
Mitochondria [2] = assay: Protection against CuCl2/ascorbic acid-induced depolarization of goat cardiac mitochondria at 66 uM after 60 mins by calcein AM dye-based flow cytometric analysis; type: functional, subcellular; settings: Capra hircus, Heart, Mitochrondria
[3] = Binding affinity to ascorbate assessed as decrease in heat change at 66 uM in presence of ascorbic acid by isothermal titration calorimetry
Mitochondria [4] = assay: Antioxidant activity in goat cardiac mitochondria assessed as reversal of CuCl2/ascorbic acid-induced reduction in alpha-KGDH level at 8.25 uM using alpha-ketoglutarate as substrate after 1 hr (reference value: 69.78%); type: functional, subcellular; parameters: scale not given: the % may be the effect or the level left; settings: Capra hircus, Heart, Mitochrondria
Mitochondria [5] = assay: Antioxidant activity in goat cardiac mitochondria assessed as reversal of CuCl2/ascorbic acid-induced reduction in SDH level at 8.25 uM using succinate as substrate after 1 hr by spectrophotometric analysis (reference value: 71.51%); type: functional, subcellular; parameters: scale not given: the % may be the effect or the level left; settings: Capra hircus, Heart, Mitochrondria
[6] = Antioxidant activity in pH 10 Tris-HCl buffer assessed as superoxide anion radical scavenging activity by measuring rate of epinephrine auto-oxidation by spectrophotometric analysis; type: functional
Mitochondria [7] = assay: Antioxidant activity in goat cardiac mitochondria assessed as reversal of CuCl2/ascorbic acid-induced reduction in PDH level at 33 uM using sodium pyruvate as substrate after 1 hr by spectrophotometric analysis relative to control; type: functional, subcellular; settings: Capra hircus, Heart, Mitochrondria
[8] = Effect on ICDH levels in goat cardiac mitochondria at 8.25 to 66 uM using isocitrate as substrate after 1 hr; type: ADME, subcellular, Capra hircus, Heart, Mitochrondria
[9] = Binding affinity to ascorbate at 66 uM in presence of ascorbic acid by isothermal titration calorimetry
Mitochondria [10] = assay: Antioxidant activity in goat cardiac mitochondria assessed as inhibition of CuCl2/ascorbic acid-induced lipid peroxidation at 8.25 uM after 1 hr by thiobarbituric acid based UV-Visible spectrophotometric method (reference value: 60.11%); type: functional, subcellular; settings: Capra hircus, Heart, Mitochrondria
[11] = Binding affinity to Cu2+ assessed as binding constant K3 at 66 uM in presence of CuCl2 by isothermal titration calorimetry
Mitochondria [12] = assay: Antioxidant activity in goat cardiac mitochondria assessed as inhibition of CuCl2/ascorbic acid-induced manganese superoxide dismutase at 16.5 uM after 1 hr by pyrogallol autoxidation method relative to control; type: functional, subcellular; settings: Capra hircus, Heart, Mitochrondria
Mitochondria [13] = assay: Antioxidant activity in goat cardiac mitochondria assessed as reversal of CuCl2/ascorbic acid-induced reduction in alpha-KGDH level at 33 uM using alpha-ketoglutarate as substrate after 1 hr relative to control; type: functional, subcellular; settings: Capra hircus, Heart, Mitochrondria
Mitochondria [14] = assay: Antioxidant activity in goat cardiac mitochondria assessed as reversal of CuCl2/ascorbic acid-induced reduction in PDH level at 16.5 uM using sodium pyruvate as substrate after 1 hr spectrophotometric analysis (reference value: 66.25%); type: functional, subcellular; parameters: scale not given: the % may be the effect or the level left; settings: Capra hircus, Heart, Mitochrondria
[15] = Antioxidant activity in pH 7.4 phosphate buffer assessed as DPPH radical scavenging activity by measuring trolox equivalent antioxidant capacity by measuring IC50 Trolox/IC50 test compound ratio after 30 mins by spectrophotometric analysis; type: functional
[16] = Effect on manganese superoxide dismutase-like activity in cardiac mitochondria at 8.25 to 66 uM after 1 hr by pyrogallol autoxidation method relative to control; type: ADME, subcellular, Capra hircus, Heart, Mitochrondria; settings: goat
[17] = Antioxidant activity in pH 7.4 phosphate buffer assessed as DPPH radical scavenging activity after 30 mins by spectrophotometric analysis; type: functional
Mitochondria [18] = assay: Protective activity against CuCl2/ascorbic acid-induced apoptotic alteration in goat cardiac mitochondria assessed as reversal of CuCl2/ascorbic acid-induced reduction in cytochrome c oxidoreductase activity at 66 uM incubated for 1 hr and measured at 10 secs time interval for 90 secs by spectrophotometric analysis (reference value: 47.82%); type: functional, subcellular; parameters: scale not given: the % may be the effect or the level left; settings: Capra hircus, Heart, Mitochrondria
Mitochondria [19] = assay: Antioxidant activity in goat cardiac mitochondria assessed as reversal of CuCl2/ascorbic acid-induced reduction in GSH level at 33 uM after 1 hr by DTNB reagent based method relative to control; type: functional, subcellular; settings: Capra hircus, Heart, Mitochrondria
[20] = Induction of structural distortion in goat cardiac mitochondria at 66 uM after 1 hr by scanning electron microscopy; type: subcellular, Capra hircus, Heart, Mitochrondria
Mitochondria [21] = assay: Antioxidant activity in goat cardiac mitochondria assessed as reversal of CuCl2/ascorbic acid-induced reduction in SDH level at 16.5 uM using succinate as substrate after 1 hr by spectrophotometric analysis relative to control; type: functional, subcellular; settings: Capra hircus, Heart, Mitochrondria
Mitochondria [22] = assay: Protective activity against CuCl2/ascorbic acid-induced apoptotic alteration in goat cardiac mitochondria assessed as reversal of CuCl2/ascorbic acid-induced reduction in cytochrome c oxidoreductase activity at 8.25 uM incubated for 1 hr and measured at 10 secs time interval for 90 secs by spectrophotometric analysis (reference value: 47.82%); type: functional, subcellular; parameters: scale not given: the % may be the effect or the level left; settings: Capra hircus, Heart, Mitochrondria
[23] = Binding affinity to Cu2+ assessed as decrease in heat change at 66 uM in presence of CuCl2 by isothermal titration calorimetry
Mitochondria [24] = assay: Antioxidant activity in goat cardiac mitochondria assessed as inhibition of CuCl2/ascorbic acid-induced lipid peroxidation at 16.5 uM after 1 hr by thiobarbituric acid based UV-Visible spectrophotometric method (reference value: 60.11%); type: functional, subcellular; settings: Capra hircus, Heart, Mitochrondria
[25] = Effect on intactness in goat cardiac mitochondria at 66 uM after 1 hr by Janus green-B staining based confocal microscopic method; type: ADME, subcellular, Capra hircus, Heart, Mitochrondria
Mitochondria [26] = assay: Antioxidant activity in goat cardiac mitochondria assessed as inhibition of CuCl2/ascorbic acid-induced protein carbonyl content at 33 uM after 1 hr by DNPH assay relative to control; type: functional, subcellular; settings: Capra hircus, Heart, Mitochrondria
Mitochondria [27] = assay: Antioxidant activity in goat cardiac mitochondria assessed as inhibition of CuCl2/ascorbic acid-induced manganese superoxide dismutase after 1 hr by pyrogallol autoxidation method; type: functional, subcellular; settings: Capra hircus; Heart; Mitochrondria
[28] = Effect on cytochrome c oxidoreductase activity in goat cardiac mitochondria at 8.25 to 66 uM incubated for 1 hr and measured at 10 secs time interval for 90 secs by spectrophotometric analysis; type: ADME, subcellular, Capra hircus, Heart, Mitochrondria

CCOC(=O)c1c(-c2ccc(O)c(OC)c2)cn2c1c(=O)oc1ccccc12
inhibition (Mitochondria [1]): 72.1%
Activity (Mitochondria [2]): Active
Activity [3]: Active
Activity (Mitochondria [4]): 43.1%
Activity (Mitochondria [5]): 51.7%
Activity [6]: Dose-dependent effect
fold change (FC) (Mitochondria [7]): 2.94
Activity [8]: Non-Toxic
K [9]: 4.6 ×10³ /M
inhibition (Mitochondria [10]): 12.3%
K [11]: 1.04 ×10⁵ /M
inhibition (Mitochondria [12]): 34.1%
fold change (FC) (Mitochondria [13]): 2.74
Activity (Mitochondria [14]): 94.5%
Ratio IC50 [15]: 0.78
Activity [16]: Non-Toxic
Activity [17]: Dose-dependent effect
IC50 [17]: 46.4 µM
MEC [17]: 66 µM
Activity (Mitochondria [18]): 85.2%
fold change (FC) (Mitochondria [19]): 4.66
Activity [20]: Non-Toxic
fold change (FC) (Mitochondria [21]): 2.08
Activity (Mitochondria [22]): 23.5%
Activity [23]: Active
inhibition (Mitochondria [24]): 19.9%
Activity [25]: Non-Toxic
inhibition (Mitochondria [26]): 64.8%
Activity (Mitochondria [27]): Dose-dependent effect
Activity [28]: Non-Toxic
